Where two headings read alike, the source gives them in different places.
Tests used:
A549 cells [1] = test: Mitochondrial membrane potential (JC-1, flow cytometry); type: cell-based, human; settings: positive control, 5 μM, 30 min
Method: A549 cells were seeded onto 24-well plates. 24 h later, cells were incubated for 4 h with complexes 2, 4, 6, and 8 at 10 nM and then photoactivated or kept in the dark for an additional hour. Next, the cells were washed with PBS and harvested by trypsinization. Mitochondrial membrane potential changes were immediately measured by the JC-1 (5,5′,6,6′-tetrachloro-1,1′,3,3′-tetraethylbenzimidazolocarbo-cyanine iodide) Mitochondrial Membrane Potential Detection Kit (Biotium), according to the manufacturer’s instructions. As positive control, the cells were coincubated with CCCP (Sigma) at 5 μM for 30 min to disrupt the mitochondrial membrane potential. For each treatment, the fluorescence of 1 × 10^4 cells was analyzed by a Novocyte flow cytometer. JC-1 red aggregates were detected at a wavelength of 590 nm (FL2) and JC-1 green monomers at 529 nm (FL1).

A549 cancer cells = test: MTT cell viability assay, dark or photoactivated; type: cell-based, human; settings: A549, MTT; for IC50: 4 h incubation
Method: Cells were cultured in 96-well plates at a density of 3000 (A549), 2500 (HeLa), or 5000 (PC-3, 1BR.3.G, and MRC-5) cells per well in cell culture medium and allowed to attach for 24 h. Solutions of the complexes at different concentrations were prepared for cell treatments. In all cases, the solid compounds were weighed using an analytical balance (Mettler Toledo AX205DR) to ensure precise measurements. Subsequently, 5 mM solutions were prepared using DMSO. Solutions were then diluted in water to reach a concentration of 1 mM and then, aliquots were taken and diluted in culture medium to obtain solutions ranging from 0 to 50 μM. […] The cells were treated with these solutions in dark conditions or following the photoactivation protocol (see below). 48 h later the treatments were removed, and cells were washed with phosphate-buffered saline (PBS).
Initially, the effect of the complexes on the cell viability was determined by the 3-(4,5-dimethylthiazol-2-yl)-2,5-diphenyltetrazolium bromide (MTT) assay.[147] The cells were incubated for 2 h with 100 μL of culture medium together with 10 μL of MTT (Sigma-Aldrich) at 0.5 mg/mL. After discarding the medium, DMSO was added to each well to dissolve the purple formazan crystals. The absorbance of each well was determined on a Multiscan Plate Reader (Synergy 4, Biotek, Winooski) at a wavelength of 570 nm. Cell viability was also assessed using the CyQUANT Direct Cell Proliferation Assay (Thermo Fisher Scientific), following the manufacturer’s instructions. Briefly, after the treatments, the cells were washed with PBS, and an equal volume of culture medium and CyQUANT mix was added to each well. The plates were then incubated for 1 h at 37 °C. Subsequently, the fluorescence intensity was bottom read using a Multiscan Plate Reader (Synergy 4, Biotek, Winooski) with excitation and emission filters of 485 and 528 nm, respectively. In both assays, at least three replicates were measured for each treatment. The concentration that reduces the cell viability by 50% (IC50) was established using the Gen5 software (BioTek). Three independent experiments were carried out for each compound. […] The phototoxicity index (PI = IC50,dark/IC50,light) was determined.
To assess the photodynamic activity of the complexes, cells were incubated with the complexes for 4 h to enable their intracellular accumulation. The cells were then irradiated with light with a wavelength of 460 nm (blue), 530 nm (green), or 655 nm (red) for 1 h using a LED system (LuxLight) with an effective power of 6.7 mW cm^–2, which provides a total light dose of 24.1 J cm^–2. The LED system was positioned at 25 mm from the cell culture plates.

[2] = test system: porcine red blood cells (RBC); test: Hemolytic activity (hemoglobin release); type: cell-based; settings: dark, 1 hour
Method: The hemolytic activities of the complexes were determined by measuring hemoglobin release from porcine red blood cells (RBC). First, fresh porcine blood commercially obtained was diluted to 5% v/v in PBS solution and washed three times with PBS by centrifugation at 1000 rcf for 10 min. Then, RBC suspension (150 μL) was mixed with 150 μL of each complex at concentrations ranging from 1 to 50 μM. A solution of 0.2% Triton X-100 in PBS was used as positive control to induce complete hemolysis. PBS alone was used as negative control. Samples were incubated at 37 °C for 1 h in an orbital shaker (50 rpm) and then centrifuged at 3500 rcf for 10 min. 80 μL aliquots of the supernatant were transferred to a 96-well plate and diluted with 80 μL of Milli-Q water. Hemolysis was evaluated by measuring the absorbance of the samples at 540 nm with a Synergy 4 plate reader (BioTek, Winooski). The percentage of hemolysis (H) was calculated using eq 4: [drawing 25] 4 where As is the absorbance for a given sample, An is the absorbance for the negative control, and Ap is the absorbance for the positive control. Each sample was tested in triplicate.

A549 cells [3] = test: Cell death mechanism (Annexin V-FITC / propidium iodide); type: cell-based, human; settings: positive control 50 μM for 24 h
Method: The cell death mechanism was analyzed with the Vybrant Apoptosis Assay Kit (Molecular Probes). A549 cells seeded in 12-well plates at a density of 1 × 10^5 cells per well were treated with complex 6 at the corresponding IC50,light × 5 under photoactivation conditions. Cisplatin at 50 μM was used as positive control. 4 and 20 h after the irradiation, cells were collected by trypsinization and immediately stained with Annexin V-FITC and propidium iodide according to the manufacturer’s instructions. The median fluorescence of 10,000 cells of each sample was analyzed by flow cytometry. Annexin-FITC staining was detected at a wavelength of 520 nm (FL1) and propidium iodide was detected at 617 nm (FL2).

CT26 = test system: CT26; design: method as in p (Pozza et al., Inorg. Chem. 2023); settings: 540 nm, dose 9 J cm‐2, ref p (Pozza et al., Inorg. Chem. 2023); cited from earlier work
[4] = Photocatalytic NADH oxidation (UV-vis); type: biochemical; design: key: TON = ΔNADH concentration after 1 h / photocatalyst concentration; settings: first hour, complex 2.5 μM, NADH 100 μM
Method: Fresh stock solutions of the complexes at 7.50 μM in H2O/MeOH mixture (97.5/2.5, v/v) and NADH at 300 μM in H2O/MeOH mixture (97.5/2.5, v/v) were prepared. In a quartz cell, 1 mL of complex solution, 1 mL of NADH solution, and 1 mL of solvent mixture were mixed to prepare a final solution with 2.50 μM complex and 100 μM NADH (complex/NADH rate = 1/40). The solutions were studied by recording UV–vis absorption spectra in dark conditions and under blue light irradiation (λexc = 470 nm, “Medusa” photoreactor) at ambient temperature and various time intervals for 8 h. In addition, a solution of NADH at 100 μM was studied under blue light irradiation to confirm its photostability. The photocatalytic rate of the photosensitizers was evaluated by monitoring its absorbance decrease at 340 nm, which correspond to NADH oxidation.
The turnover numbers (TONs) of complexes were calculated by measuring the absorption difference at 340 nm after 1 h of reaction. TON was calculated from the difference in NADH concentration after 1 h divided by the concentration of photocatalyst (eq 5), where b is the optical path length (1 cm). The concentration of NADH was obtained using the extinction coefficient ε340 = 5751 M^–1 cm^–1.[40],[148] [drawing 26] 5

calf thymus DNA (CT-DNA) = test: Competitive EtBr displacement assay; type: binding; settings: CT-DNA saturated with EtBr; 1 h, room temperature; read-out: C50 (50% reduction of EtBr fluorescence)
Method: To investigate the capacity of the complexes to intercalate into DNA, the competitive ethidium displacement assay was carried out as previously described[149] with minor modifications. Stock solutions of 20 μM calf thymus DNA (CT-DNA) and 25 μM Ethidium bromide (EtBr) were prepared in saline TE (50 mM NaCl, 10 mM tris(hydroxymethyl) aminomethane–HCl, 0.1 mM ethylenediaminetetracetic acid (EDTA), pH 7.4). Serial dilutions of metal complexes were prepared at concentrations ranging from 20 to 400 μM from a 1 mM stock solution containing 20% DMSO. The assay was carried out by mixing 25 μL of CT-DNA and 25 μL of EtBr with 50 μL of each compound dilution, on a black 96-well plate. The plate was incubated at room temperature for 1 h and the fluorescence was measured on a Synergy 4 microplate reader (Biotek, Winooski), with excitation wavelength set to 500 nm, and emission wavelength set to 530–800 nm. The fluorescence emission at 590 nm was used to measure the C50, corresponding to the concentration of compound required to induce a 50% decrease in the fluorescence of the EtBr. Experiments were performed in triplicate.

[5] = 1O2 quantum yield determination with DPBF; settings: acetonitrile; 470 nm blue light
Method: It was performed for complexes 1–8 in acetonitrile according to a relative procedure adapted from the literature[132]−[134] based on monitoring the oxidation of 1,3-diphenylisobenzofuran (DPBF, yellow) to 1,2-dibenzoylbenzene (colorless) photosensitized by the Ir(III) complexes. DPBF was used as an ^1O2 scavenger due to its fast reaction with this molecule. Fresh stock air-equilibrated solutions of photosensitizers (6.00 × 10^–6 M) and DPBF (1.50 × 10^–4 M) in acetonitrile were prepared. In a quartz cell, 1 mL of DPBF solution, 0.5 mL of complex solution, and 1.5 mL of acetonitrile were mixed to prepare a final solution with 5.00 × 10^–5 M DPBF and 1.00 × 10^–6 M complex. The final solutions were studied by recording UV–vis absorption spectra at room temperature in dark conditions (over a period of 6 min with time intervals of 2 min), under blue light irradiation (λexc = 470 nm, “Medusa” photoreactor) and under green light irradiation (λexc = 530 nm, “Medusa” photoreactor) for 5 s irradiation intervals during a total exposure period of 20 s. Absorption UV–vis spectra were recorded after every irradiation interval.
The consumption of DPBF probe was measured by monitoring its absorbance intensity decrease at 410 nm with irradiation time. ^1O2 generation quantum yield (ϕΔ) was calculated from eq 1 using Rose Bengal or [Ru(bpy)3]^2+ as reference for complexes with pbpz and pbpn ligands, respectively: [drawing 22] 1 where s and ref subscripts correspond to the complex and the reference, ϕΔ is the ^1O2 generation quantum yield (0.53 for Rose Bengal[135] and 0.56 for [Ru(bpy)3]Cl2[132] in degassed acetonitrile), S is the slope of the plots of the −ln(normalized absorbance) of DPBF at 410 nm vs the irradiation time, and F is the correction factor of absorption, which is given by F = 1–10^–O.D. (where O.D. is the optical density at 470 nm of solutions of complexes and references). The reproducibility of the results was confirmed by performing each experiment three times.
The stability of DPBF probe was studied in dark conditions and under light irradiation. In dark conditions and under green light irradiation the probe remains unaltered. However, under blue light irradiation, a photobleaching of DPBF was observed. Probe consumption was approximately 6.5% every 5 s. Therefore, a working interval of 20 s was chosen, where 75% of the probe remains stable. To calculate the ϕΔ, a correction factor was applied to the absorbance at 410 nm: a 6.5% of the previous value was added to each absorbance to counteract self-consumption of the probe (i.e., to the absorbance at 10 s, a 6.5% of the absorbance at 5 s was added).

[6] = kept in the dark, viability after 48 h, read-out: IC50 dark
[7] = blue light 460 nm 1 h (24.1 J cm^–2), 48 h, read-out: IC50 blue light

With `N#CC(C#N)=NNc1cccc(Cl)c1` [CCCP, carbonyl cyanide m-chlorophenyl hydrazone, reference compound] the “cells with red fluorescence (JC-1 aggregates), upper right quadrant” value (A549 cells [1]) was 21.9%.

With `N.N.[Cl][Pt][Cl]` [Cisplatin, reference compound] the IC50 (A549 cancer cells; [6]) was 8.9 ± 2 µM, the Hemolytic activity ([2]; 1 μM) was 0% and the Hemolytic activity ([2]; 5 μM) was 0%. For the same compound, the Hemolytic activity ([2]; 10 μM) was 0%, the Hemolytic activity ([2]; 25 μM) was 0.2% and the “cells in early apoptosis (AN+; IP−), lower right quadrant” value (A549 cells [3]) was 5.3%. For the same compound, the “cells in late apoptosis (AN+; IP+), upper right quadrant” value (A549 cells [3]) was 26.1% and the “cells in necrosis (AN–; IP+), upper left quadrant” value (A549 cells [3]) was 6.6%.

In the case of `[Ru+2].c1ccc(-c2ccnc3c2ccc2c(-c4ccccc4)ccnc23)cc1.c1ccc(-c2ccnc3c2ccc2c(-c4ccccc4)ccnc23)cc1.c1cnc2c(c1)ccc1cccnc12` [[Ru(DIP)2(phen)]2+], the PI (CT26) is given as 1111 and the PI/Dose (CT26) is given as 123.4.

`Cc1c(C)c(C)[c-](C)c1C.F[B-](F)(F)F.c1ccc2nc3c4ccc[n+]5c4c4[c](cccc4c3nc2c1)[Ir]5[n+]1cc[nH]c1` [complex 3, [(η^5-C5Me5)Ir(Im)(pbpz)]BF4] showed an IC50 (A549 cancer cells; [7]) of 1.2 ± 0.1 µM, an IC50 (A549 cancer cells; green light 530 nm 1 h (24.1 J cm^–2), 48 h, read-out: IC50 green light) of 2.5 ± 0.3 µM and an IC50 (A549 cancer cells; [6]) of 4.9 ± 0.7 µM. The “PI green light (IC50,dark/IC50,light)” value (A549 cancer cells; green light 530 nm, 24.1 J cm^–2) was 2.0, the “TON1h (NADH oxidation)” value ([4]; 470 nm blue light) was 2.28 and the “TON1h (NADH oxidation)” value ([4]; dark) was 0.47. The IC50 (calf thymus DNA (CT-DNA)) was 16.1 µM and the “1O2 generation quantum yield (ϕΔ), DPBF” value [5] was 0.0399.

For [(η^5-C5Me5)Ir(bhq)Cl] [complex 10], the IC50 (A549 cancer cells; [7]) was 5.6 ± 0.4 µM, the IC50 (A549 cancer cells; [6]) was 10 ± 0.3 µM and the “PI blue light (IC50,dark/IC50,light)” value (A549 cancer cells; blue light 460 nm, 24.1 J cm^–2) was 1.8.

Source: publication PMC10859961, “Ir(III) Half-Sandwich Photosensitizers with a π-Expansive Ligand for Efficient Anticancer Photodynamic Therapy” (Journal of Medicinal Chemistry, 2024)
